Test results reported in patent US20220079960A1, “USE OF P1P DERIVATIVES AS THERAPEUTIC AGENT FOR SEPSIS” (AXCESO BIOPHARMACO.,LTD., priority 2019, published 2022).
Read-outs that look alike come from different tables or passages of the source.

Tests used:
[1] = system: TNF-α; assay: Inflammatory cytokine (TNF-α) secretion after LPS treatment in macrophages, ELISA; assay type: cell-based; settings: Mus musculus
Experimental: The macrophage cell line used in the experiment was Raw 264.7 cell line purchased from ATCC, and Dulbeco's Modified Eagle's Media high glucose (with 10% FBS, 0.5% P/S) was used as a medium for culturing macrophages. Macrophages were cultured at 37° C., 5% CO2 incubator. Macrophages were treated with P1P or cP1P drugs at concentrations of 0.02 μM, 0.1 uM, 0.5 μM and 1 μM, respectively and then LPS of 1 ng/ml after 6 hours, and cultured for 4 hours. And then changes of inflammatory cytokines (Tumor necrosis factor alpha, TNF-α) were measured by the manufacturer's method using ELISA (BD OPTEIAT™). As a comparison group, S1P was used at the same concentration and conditions.
To this end, macrophage cell lines were treated with LPS to increase inflammatory cytokines, and the efficacy of P1P and derivatives thereof on inflammatory cytokine secretion was evaluated. Macrophage cell lines were treated with P1P drug or cP1P drug, and 6 hours later, treated with LPS at a concentration of 500 ng/mL for 4 hours.

[2] = system: Human umbilical vein endothelial cell (HUVEC); assay: Proliferation of human vascular endothelial cells, MTT assay; assay type: cell-based; settings: 10 nM, 100 nM and 1000 nM, 48 hours, compared with S1P (FIG. 6)
Experimental: Human umbilical vein endothelial cell (HUVEC) used in the experiment was purchased from Promocell, and cultured in an incubator at 37° C., 5% CO2 using Endothelial Cell Growth Medium 2 as a culture medium. To confirm the proliferation effect of P1P drug, HUVEC cells were treated with P1P or cP1P drug at concentrations of 10 nM, 100 nM and 1000 nM, respectively, and cultured for 48 hours. The cell proliferation rate was measured according to the manufacturer's method using MTT assay (Molecular Probes). As a comparison group, S1P was used at the same concentration and conditions.

[3] = system: Human umbilical vein endothelial cell (HUVEC); assay: Survival of human vascular endothelial cells under oxidative stress (H2O2), MTT assay; assay type: cell-based; settings: for cell viability compared with S1P: 500 μM hydrogen peroxide (FIG. 7)
Experimental: Human umbilical vein endothelial cell (HUVEC) used in the experiment was purchased from Promocell, and cultured in an incubator at 37° C., 5% CO2 using Endothelial Cell Growth Medium 2 as a culture medium. To confirm the efficacy of P1P drug in an oxidative stress environment, HUVEC cells were pretreated with P1P or cP1P at concentrations of 10 nM, 100 nM, and 1000 nM for 1 hour, and then exposed to oxidative stress by treatment with 500 μM hydrogen peroxide (H2O2) for 6 hours. The efficacy of the […] drug on the survival of HUVEC cells after 6 hours of exposure to oxidative stress was confirmed by MTT assay. As a comparison group, S1P was used at the same concentration and conditions.
In addition to causing inflammation, LPS promotes oxidative stress to promote vascular endothelial cell death. To analyze the effect of the present drugs, oxidative stress was induced in vascular endothelial cells by treatment with 500 μM of hydrogen peroxide.

[4] = Solubility in water; assay type: physicochemical
[5] = system: SIRT1; assay: Expression of SIRT1 in macrophages, RT-PCR; assay type: cell-based; settings: Raw 264.7 macrophages; 0.01-1 μM; RT-PCR 24 hours later (FIG. 8)
Experimental: The macrophage cell line used in the experiment was Raw 264.7 cell line purchased from ATCC, and Dulbeco's Modified Eagle's Media high glucose (with 10% FBS, 0.5% P/S) was used as a medium for culturing macrophages. Macrophages were cultured in an incubator at 37° C., 5% CO2. Macrophages were treated with P1P or cP1P drug at concentrations of 0.01 μM, 0.1 μM, and 1 μM, respectively and then LPS of 100 ng/ml after 4 hours, and cultured for 24 hours. The change in SIRT1 protein was measured by RT-PCR.
Expression of SIRT1 protein is very important in the treatment of sepsis. When sepsis is induced, the synthesis and activity of SIRT1 protein is reduced. Macrophages were treated with P1P drugs during culture, and the expression level of SIRT1 protein was confirmed by RT-PCR 24 hours later.

[6] = system: Balb/c mice; assay: LPS sepsis mouse model: effect of drugs on survival rate; assay type: in vivo; settings: for Survival rate (%): drug 40 μg/mouse i.p. 5 minutes after LPS
Experimental: For the experiment of the survival rate of mice after LPS administration, 7-week-old Balb/c mice were purchased from Orient Bio and adapted to the laboratory. Then, LPS (Sigma) was dissolved in phosphate buffer solution (PBS) at a concentration of 400 μg/mouse, 200 μg/mouse, 170 μg/mouse, 150 μg/mouse, 125 μg/mouse, and 100 μg/mouse, and 100 uL of each was injected into the abdominal cavity of a mouse.
To this end, the LPS concentration was determined to be 150 μg/mouse, and the P1P drug was intraperitoneally injected at a concentration of 40 μg/mouse 5 and 60 minutes after intraperitoneal injection of LPS. The survival rate was measured by observation for 72 hours at 12 hour intervals. In another experiment, P1P drug was injected intraperitoneally at a concentration of 40 μg/mouse 1 hour after intraperitoneal injection of LPS of 125 μg/mouse to compare the survival rate of mice. In the same way, the survival rate was measured while changing the P1P concentration.
To this end, the LPS concentration was determined to be 150 μg/mouse, and the cP1P drug was intraperitoneally injected at a concentration of 40 μg/mouse 5 and 60 minutes after intraperitoneal injection of LPS. The survival rate was measured by observation for 72 hours at 12 hour intervals. In another experiment, cP1P drug was injected intraperitoneally at a concentration of 40 μg/mouse 1 hour after intraperitoneal injection of LPS of 125 μg/mouse to compare the survival rate of mice.
Soybean lecithin called Lipoid S-75 was used to prepare the liposome, and 20 mg of lecithin was dissolved in 1 mL of chloroform. P1P or cP1P was dissolved in 1 mL of chloroform/methanol (2:1, v/v) solvent in an amount of 2 mg, 1 mg or 0.5 mg, respectively, and mixed with the lecithin solution. A thin lipid film was made by removing the organic solvent from the mixed solution using nitrogen gas or a rotary evaporator. The thin lipid film was stored in a vacuum desiccator overnight to completely remove the organic solvent remaining on the film. 5 mL of a phosphate buffer solution was added to the thin lipid film and stirred for 30 minutes to prepare multilamellar vesicles (MLV, large liposomes). The prepared MLV particles were sonicated for 2 minutes in an ice bath to make small unilamellar vesicles (SUV) of 100 nm or less. This sonication process was repeated twice. Only the supernatant obtained by centrifugation of the prepared SUV at 12000 rpm for 5 minutes was used in the experiment. Liposomes containing P1P or cP1P drug (P1P-liposomes/cP1P-liposomes) were used in an experiment to increase the survival rate of mice using LPS. To this end, LPS of 170 μg/mouse, which is higher than the conventional LPS concentration (125-150 μg/mouse), was injected into the abdominal cavity of the mouse. P1P or cP1P drug was administered at 40 μg/mouse 5 minute after LPS administration, and 100 μl of P1P-liposomes and cP1P-liposomes (P1P and cP1P of about 40 μg/mouse) were injected into the abdominal cavity of the mouse, and the survival rate change was determined over time.
The effect of P1P to treat sepsis was tested under the same conditions as described in the experimental method. P1P of 40 μg/mouse was administered intraperitoneally and intravenously 5 minutes after intraperitoneal injection of LPS of 150 μg/mouse. […] When the P1P drug was administered 1 hour after LPS administration, the survival rate was about 40% for intraperitoneal injection and 20% for intravenous injection (FIG. 2b). These indicate that P1P effectively ameliorated sepsis induced after LPS treatment. Furthermore, P1P of 40 μg/mouse was administered by intraperitoneal injection 1 hour after intraperitoneal injection of 125 μg/mouse of LPS. […] In the case of 20 μg/mouse concentration, the survival rate was 80%, and in the case of 10 μg/mouse concentration, the survival rate was about 60% (FIG. 3b). It was confirmed that P1P increased the survival rate in a concentration-dependent manner. […]

[7] = S1P administered directly; cited from earlier work
[8] = RAW264.7, read-out: inhibitory efficacy on inflammatory cytokine (TNF-α) production
[9] = LPS 125 μg/mouse i.p., drug 40 μg/mouse i.p. 1 hour after LPS (FIG. 3a, FIG. 4b)
[10] = LPS 150 μg/mouse i.p., drug 40 μg/mouse intraperitoneally 5 minutes after LPS (FIG. 2a, FIG. 4a)

Structure (SMILES)	inhibition at 1 µM [1, 8] [%]	efficacy on proliferation of vascular endothelial cells [2]	cell viability compared with S1P [3]	solubility in water [4]	expression level of SIRT1 protein [5]	survival rate [6, 9]	Survival rate (%) ([6]; LPS 150 μg/mouse i.p., 0 h)	Survival rate (%) ([6]; LPS 150 μg/mouse i.p., 12 h)	Survival rate (%) ([6]; LPS 150 μg/mouse i.p., 24 h)	Survival rate (%) ([6]; LPS 150 μg/mouse i.p., 48 h)	Survival rate (%) ([6]; LPS 150 μg/mouse i.p., 72 h)	survival rate [6, 10] [%]	Survival rate (%) ([6]; LPS 170 μg/mouse i.p., 0 h)	Survival rate (%) ([6]; LPS 170 μg/mouse i.p., 12 h)	Survival rate (%) ([6]; LPS 170 μg/mouse i.p., 24 h)	Survival rate (%) ([6]; LPS 170 μg/mouse i.p., 36 h)	Survival rate (%) ([6]; LPS 170 μg/mouse i.p., 48 h)	Survival rate (%) ([6]; LPS 170 μg/mouse i.p., 72 h)	Survival rate (%) ([6]; LPS 150 μg/mouse i.p., 36 h)	other results
CCCCCCCCCCCCCC[C@@H](O)[C@H](O)[C@H](N)COP(=O)(O)O (stereo in doubt) [P1P, Phytosphingosine-1-phosphate]	49	higher than that of S1P	higher cell viability than S1P	poorly soluble in water	increased SIRT1 protein even at very low concentrations	100%	100	100	100	80	80	≥ 80	100	80	40	20	20	20		cell viability ([3]; 500 μM hydrogen peroxide, untreated control about 40%): ≥ 70%; survival rate ([6]; LPS 125 μg/mouse, drug 10 μg/mouse 60 minutes after LPS (FIG. 3b)): about 60%; survival rate ([6]; LPS 125 μg/mouse, drug 20 μg/mouse 60 minutes after LPS (FIG. 3b)): 80%; survival of mice while varying drug concentration ([6]; LPS 125 μg/mouse, drug 40 μg/mouse 60 minutes after LPS, up to 72 hours (FIG. 3b)): all of them survived up to 72 hours; survival rate ([6]; LPS 150 μg/mouse i.p., drug 40 μg/mouse intravenously 5 minutes after LPS (FIG. 2a)): ≥ 80%; survival rate ([6]; LPS 150 μg/mouse i.p., drug by intraperitoneal injection 1 hour after LPS (FIG. 2b)): about 40%; survival rate ([6]; LPS 150 μg/mouse i.p., drug by intravenous injection 1 hour after LPS (FIG. 2b)): 20%
CCCCCCCCc1ccc(CCC(N)(CO)CO)cc1 [FTY720, fingolimod, reference compound]							100	100	40	20	20								20	
CCCCCCCCCCCCC/C=C/[C@@H](O)[C@@H](N)COP(=O)(O)O [S1P, sphingosine-1-phosphate, reference compound]							100	100		40	40								40	degradation rate in the blood [7]: high degradation rate in the blood; inhibition at 1 µM ([1]; RAW264.7, 1 μM, Raw 264.7 macrophages, drug 6 hours before LPS, LPS 4 hours, ELISA, read-out: inhibitory efficacy on inflammatory cytokine (TNF-α) production): 19%
CCCCCCCCCCCCCC[C@@H](O)[C@H]1OP(=O)(O)OC[C@@H]1N [cP1P, O-cyclic P1P]	35	higher than that of S1P	higher cell viability than S1P	poorly soluble in water	increased SIRT1 protein even at very low concentrations	about 100%						≥ 70	100	80	60	40	40	40		
